Counter-ions that a name gives are not always drawn.
Experiments:
PARP-1 enzyme = target: T1, PARP-1 enzyme (Homo sapiens, UniProt P09874); test: in vitro filtration assay for PARP-1 inhibitory activity; format: biochemical; details: [32P]-NAD, histones, nicked DNA; dose-response 10^-5 M to 10^-8 M; read-out: in vitro filter assay PARP-1 pIC50 (converted)
T1 construct: made in house
Description: In Vitro Filtration Assay for PARP-1 Inhibitory Activity
Compounds of the present invention were tested in an in vitro filtration assay assessing PARP-1 activity (triggered in the presence of nicked DNA) by means of its histone poly (ADP-ribosylation activity using [^32P]-NAD as ADP-ribosyl donor. The radioactive ribosylated histones were precipitated by trichloroacetic acid (TCA) in 96-well filterplates and the incorporated [^32P] measured using a scintillation counter
A mixture of histones (stock solution: 5 mg/ml in H2O), NAD^+ (stock solution: 100 mM in H2O), and [^32P]-NAD^+ in incubation buffer (50 mM Tris/HCl, pH 8; 0.2 mM DTT; 4 mM MgCl2) was made. A mixture of the PARP-1 enzyme (5-10 μg/ml) and nicked DNA was also made. The nicked DNA was prepared as described in the in vitro SPA for PARP-1 inhibitory activity. Seventy-five μl of the PARP-1 enzyme/DNA mixture together with 1 μl of compound in DMSO and 25 μl of histones-NAD^+/[^32P]-NAD^+ mixture was added per well of a 96-well filterplate (0.45 μm, supplier Millipore). The final concentrations in the incubation mixture were 2 μg/ml for the histones, 0.1 mM for the NAD^+, […] (0.5 μC) for the [^32P]-NAD^+ and 2 μg/ml for the nicked DNA. Plates were incubated for 15 min. at room temperature and the reaction was terminated by the addition of 10 μl ice cold 100% TCA followed by the addition of 10 μl ice-cold BSA solution (1% in H2O). The protein fraction was allowed to precipitate for 10 min. at 4° C. and plates were vacuum filtered. The plates were subsequently washed with, for each well, 1 ml of 10% ice cold TCA, 1 ml of 5% ice cold TCA and 1 ml of 5% TCA at room temperature. Finally 100 μl of scintillation solution (Microscint 40, Packard) was added to each well and the plates were transferred to a TopCountNXT™ (supplier: Packard) for scintillation counting and values were expressed as counts per minute (cpm). For each experiment, controls (containing PARP-1 enzyme and DMSO without compound), a blank incubation (containing DMSO but no PARP-1 enzyme or compound) and samples (containing PARP-1 enzyme and compound dissolved in DMSO) were run in parallel. All compounds tested were dissolved and eventually further diluted in DMSO. In first instance, compounds were tested at a concentration of 10^−5M. […] In each test, the blank value was subtracted from both the control and the sample values. The control sample represented maximal PARP-1 enzyme activity. For each sample, the amount of cpm was expressed as a percentage of the mean cpm value of the controls. When appropriate, IC50-values (concentration of the drug, needed to reduce the PARP-1 enzyme activity to 50% of the control) were computed using linear interpolation between the experimental points just above and below the 50% level. Herein the effects of test compounds are expressed as pIC50 (the negative log value of the IC50-value). As a reference compound, 4-amino-1,8-naphthalimide was included to validate the filtration assay.

TANK-2 enzyme = target: T2, TANK-2 enzyme (Homo sapiens, UniProt Q9H2K2); test: in vitro Scintillation Proximity Assay (SPA) for TANK-2 inhibitory activity; format: biochemical
T2 construct: His tag (inferred from capture on a Ni-coated plate); made in house
T2 sequence (Q9H2K2 1-1166): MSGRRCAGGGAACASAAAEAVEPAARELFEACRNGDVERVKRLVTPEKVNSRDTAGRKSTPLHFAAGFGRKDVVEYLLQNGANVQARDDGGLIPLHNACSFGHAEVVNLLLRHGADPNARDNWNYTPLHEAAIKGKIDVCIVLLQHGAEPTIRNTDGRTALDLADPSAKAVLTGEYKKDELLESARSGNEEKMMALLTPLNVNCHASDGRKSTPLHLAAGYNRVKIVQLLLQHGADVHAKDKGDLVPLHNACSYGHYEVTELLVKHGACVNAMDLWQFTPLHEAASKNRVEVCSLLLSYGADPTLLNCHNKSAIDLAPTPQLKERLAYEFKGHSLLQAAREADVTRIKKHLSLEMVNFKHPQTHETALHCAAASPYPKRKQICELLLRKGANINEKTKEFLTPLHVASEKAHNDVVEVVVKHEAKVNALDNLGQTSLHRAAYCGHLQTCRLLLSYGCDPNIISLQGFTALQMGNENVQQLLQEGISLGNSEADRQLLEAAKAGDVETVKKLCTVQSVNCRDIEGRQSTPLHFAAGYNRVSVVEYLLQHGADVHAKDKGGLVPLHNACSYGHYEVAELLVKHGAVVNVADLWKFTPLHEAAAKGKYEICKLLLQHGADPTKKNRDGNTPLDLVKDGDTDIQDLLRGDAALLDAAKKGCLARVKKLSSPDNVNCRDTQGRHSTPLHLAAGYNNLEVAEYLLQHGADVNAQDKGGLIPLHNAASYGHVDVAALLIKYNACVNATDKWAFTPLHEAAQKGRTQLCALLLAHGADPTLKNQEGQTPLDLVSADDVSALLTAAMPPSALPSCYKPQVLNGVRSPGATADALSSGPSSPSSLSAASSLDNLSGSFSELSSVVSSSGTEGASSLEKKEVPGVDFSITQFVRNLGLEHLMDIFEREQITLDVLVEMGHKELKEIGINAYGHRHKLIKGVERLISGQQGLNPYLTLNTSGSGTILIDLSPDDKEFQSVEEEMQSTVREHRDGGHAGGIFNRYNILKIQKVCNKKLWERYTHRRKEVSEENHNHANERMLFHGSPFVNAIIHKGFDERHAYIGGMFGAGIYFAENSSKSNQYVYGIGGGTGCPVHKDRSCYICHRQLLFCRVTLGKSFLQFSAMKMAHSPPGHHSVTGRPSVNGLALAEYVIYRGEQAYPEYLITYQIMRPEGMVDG
Description: In Vitro Scintillation Proximity Assay (SPA) for Tank-2 Inhibitory Activity
Compounds of the present invention were tested in an in vitro assay based on SPA technology with Ni Flash plates (96 or 384 well).
In principle, the assay relies upon SPA technology for the detection of auto-poly(ADP-ribosylation of TANK-2 protein using [^3H]-nicotinamide adenine dinucleotide ([^3H]-NAD^+) as ADP-ribosyl donor.
A stock solution of [^3H]-NAD^+/NAD was made by adding 64.6 μl of [^3H]-NAD^+ (0.1 mCi/ml, supplier: Perkin Elmer) and 46.7 μl NAD-stock (10.7 mM, stored at −20° C., supplier Roche) to 1888.7 μl assay buffer (60 mM Tris/HCl, pH 7.4; 0.9 mM DTT; 6 mM MgCl2). The TANK-2 enzyme was produced as described in EP1238063.60 μl of assay buffer, together with 1 μl of compound in DMSO, 20 μl of [^3H]-NAD^+/NAD and 20 μl of TANK-2 enzyme (final concentration 6 μg/ml) was added per well into a 96-well Ni-coated flash plate (Perkin Elmer). After incubation of the mixture for 120 min. at room temperature, the reaction was terminated by adding 60 μl of stopsolution (42.6 mg NAD in 6 ml H2O). The plates were covered with a plate sealer and placed in a TopCountNXT™ (Packard) for scintillation counting. Values were expressed as counts per minute (cpm). For each experiment, controls (containing TANK-2 enzyme and DMSO without compound), a blank incubation (containing DMSO but no TANK-2 enzyme or compound) and samples (containing TANK-2 enzyme and compound dissolved in DMSO) were run in parallel. All compounds tested were dissolved and eventually further diluted in DMSO. […] In each test, the blank value was subtracted from both the control and the sample values. The control sample represented maximal TANK-2 enzyme activity. For each sample, the amount of cpm was expressed as a percentage of the mean cpm value of the controls. When appropriate, IC50-values (concentration of the drug, needed to reduce the TANK-2 enzyme activity to 50% of the control) were computed using linear interpolation between the experimental points just above and below the 50% level. Herein the effects of test compounds are expressed as pIC50 (the negative log value of the IC50-value). As reference compounds, 3-aminobenzamide and 4-amino-1,8-naphthalimide were included to validate the SPA assay. Herein the assay was described using 96-well plates. In the assay using 384-well plates the same final concentrations were used and volumes were adapted.

T1 sequence (P09874 whole entry): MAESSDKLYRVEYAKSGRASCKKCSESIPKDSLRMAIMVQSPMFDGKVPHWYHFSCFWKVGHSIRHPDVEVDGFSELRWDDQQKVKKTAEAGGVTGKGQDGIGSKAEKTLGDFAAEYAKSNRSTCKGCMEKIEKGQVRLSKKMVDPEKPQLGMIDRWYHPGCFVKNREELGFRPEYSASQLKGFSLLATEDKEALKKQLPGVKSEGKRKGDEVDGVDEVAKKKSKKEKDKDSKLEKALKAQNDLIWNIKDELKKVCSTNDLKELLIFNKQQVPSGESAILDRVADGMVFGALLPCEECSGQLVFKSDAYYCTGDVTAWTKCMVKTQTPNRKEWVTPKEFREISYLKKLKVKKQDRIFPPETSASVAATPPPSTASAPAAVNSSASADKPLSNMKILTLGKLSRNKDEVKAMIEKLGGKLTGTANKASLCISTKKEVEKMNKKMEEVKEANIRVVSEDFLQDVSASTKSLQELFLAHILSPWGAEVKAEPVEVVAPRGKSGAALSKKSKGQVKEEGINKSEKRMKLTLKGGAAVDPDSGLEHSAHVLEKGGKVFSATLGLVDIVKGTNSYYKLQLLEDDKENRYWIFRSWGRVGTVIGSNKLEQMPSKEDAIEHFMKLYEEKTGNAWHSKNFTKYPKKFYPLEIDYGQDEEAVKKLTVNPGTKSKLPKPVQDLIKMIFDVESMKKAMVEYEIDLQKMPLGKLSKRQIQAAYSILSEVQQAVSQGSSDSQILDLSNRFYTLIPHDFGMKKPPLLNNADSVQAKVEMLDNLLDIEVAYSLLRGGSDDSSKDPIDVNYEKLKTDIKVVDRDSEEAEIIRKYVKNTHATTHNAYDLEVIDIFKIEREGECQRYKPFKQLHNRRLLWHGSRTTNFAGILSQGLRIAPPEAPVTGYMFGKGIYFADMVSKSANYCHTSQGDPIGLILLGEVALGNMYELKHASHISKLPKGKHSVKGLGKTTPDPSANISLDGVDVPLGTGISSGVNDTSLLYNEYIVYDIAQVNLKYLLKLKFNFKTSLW

SMILES	melting point	IC50 (PARP-1 enzyme)	IC50 (TANK-2 enzyme)
O=c1[nH]nc(C2CCN(CCCOc3ccc(F)cc3)CC2)c2ccccc12 (as salt: HCl) [Compound 13]	227.6 °C		
COc1ccc(CCN2CCC(c3n[nH]c(=O)c4ccccc34)CC2)cc1 [Compound 64]		29.2 nM	
NCCN1CCC(Nc2n[nH]c(=O)c3ccccc23)CC1 [Compound 33]		154 nM	> 10000 nM
O=c1[nH]nc(C2CCNCC2)c2ccccc12 (hydrate or solvate) [Compound 4]	264.9 °C		
O=c1[nH]nc(C2CCN(C[C@H](O)[C@@H]3CCc4ccccc4O3)CC2)c2ccccc12 (relative stereo) [Compound 28]		45.4 nM	
O=c1[nH]nc(N2CCC(NCc3ccccc3)CC2)c2ccccc12 [Compound 45]		109 nM	5430 nM
Clc1cccc(N2CCN(c3nnc(Cl)c4ccccc34)CC2)c1 [Compound 80]			> 10000 nM
Cc1cccc(N2CCN(c3nnc(Cl)c4ccccc34)CC2)c1 [Compound 81]			2790 nM
O=c1[nH]nc(C2CCN(c3ccc(Cl)nn3)CC2)c2ccccc12 [Compound 62]		38.6 nM	
O=c1[nH]nc(NC2CCNCC2)c2cccc([N+](=O)[O-])c12 [Compound 40]		217 nM	> 10000 nM
CCOC(=O)N1CCC(Nc2nnc(Cl)c3ccc([N+](=O)[O-])cc23)CC1 [Compound 20]	199 °C		> 10000 nM
O=c1[nH]nc(C2CCN(CC(O)COc3ccc(F)c(F)c3)CC2)c2ccccc12 (stereo not drawn) [Compound 26]		17.3 nM	> 10000 nM
O=c1[nH]nc(N[C@H]2CCN[C@@H](Cc3ccccc3)C2)c2ccccc12 (single isomer, unassigned) [Compound 35]		177 nM	> 10000 nM
CCOC(=O)N1CCC(CCNc2n[nH]c(=O)c3ccccc23)CC1 [Compound 43]		56.8 nM	> 10000 nM
CC(C)(C)OC(=O)N1CCC(CNc2n[nH]c(=O)c3ccccc23)CC1 [Compound 47]		182 nM	6370 nM
Nc1ccc2c(=O)[nH]nc(NC3CCNCC3)c2c1 [Compound 14]		766 nM	> 10000 nM
O=c1[nH]nc(NC2CCNCC2)c2ccccc12 [Compound 41]		37.7 nM	> 10000 nM

SMILES	melting point	IC50 (PARP-1 enzyme)	IC50 (TANK-2 enzyme)
O=c1[nH]nc(N[C@@H]2C[C@H]3CC[C@@H](C2)N3)c2ccccc12 (as salt: HBr) [Compound 15]	> 299 °C		
CN(c1cc2ccccc2s1)C1CCN(c2n[nH]c(=O)c3ccccc23)CC1 [Compound 54]		91.8 nM	
CCOC(=O)N1CC[C@H](Nc2nnc(Cl)c3ccccc23)C[C@@H]1Cc1ccccc1 [Compound 19]	161 °C		> 10000 nM
O=c1[nH]nc(NCC2CCNCC2)c2ccccc12 [Compound 36]		83.8 nM	3130 nM
COc1ccccc1N1CCN(c2nnc(Cl)c3ccccc23)CC1 [Compound 84]			> 10000 nM
O=c1[nH]nc(N[C@@H]2C[C@H]3CC[C@@H](C2)N3CCCC(c2ccc(F)cc2)c2ccc(F)cc2)c2ccccc12 (hydrate or solvate) [Compound 3]	164.4 °C		
Clc1nnc(NC2CCN(Cc3ccccc3)C2)c2ccccc12 (stereo not drawn) (as salt: HCl) (hydrate or solvate) [Compound 12]	171.8 °C		
O=c1[nH]nc(NCCNC2CCN(Cc3ccccc3)CC2)c2ccccc12 [Compound 42]		179 nM	> 10000 nM
N#CCN1CCN(c2n[nH]c(=O)c3ccccc23)CC1 [Compound 32]		109 nM	9250 nM
N#CC1CCN(c2n[nH]c(=O)c3ccccc23)CC1 [Compound 18]	253 °C		
O=c1[nH]nc(NC2CC(Cc3ccccc3)NC(Cc3ccccc3)C2)c2ccccc12 (stereo not drawn) [Compound 38]		148 nM	> 10000 nM
Nc1ccc2c(=O)[nH]nc(NC3CCNCC3)c2c1 (as salt: HCl) (hydrate or solvate) [Compound 14]	> 300 °C		
O=c1[nH]nc(NCCC2CCNCC2)c2ccccc12 [Compound 37]		61.8 nM	> 10000 nM
FC(F)(F)c1cccc(N2CCN(c3nnc(Cl)c4ccccc34)CC2)c1 [Compound 79]			> 10000 nM
O=c1[nH]nc(NC2CCNCC2)c2cc(Cl)ccc12 [Compound 39]		213 nM	> 10000 nM
NC1CCN(c2n[nH]c(=O)c3ccccc23)CC1 [Compound 31]		119 nM	> 10000 nM
